Assay results reported in article PMC11062899, “De novo development of small cyclic peptides that are orally bioavailable” (Nature Chemical Biology, 2023).
Where “and” joins values, the source holds several entries; their conditions need not be identical. Identical values can stand only once. Like-named read-outs stand apart in the source and are kept apart here.

What was measured:
human α-thrombin = human α-thrombin (Homo sapiens, UniProt P00734); assay: Protease inhibition, Ki for human α-thrombin (fluorogenic substrate Z-Gly-Gly-Arg-AMC); format: biochemical; conditions: human alpha thrombin; for Slope normalized to DMSO (proteolytic substrate cleavage over time): replicates R1-R3
Procedure, shortened: (§1)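 Ki derived through Cheng–Prusoff from IC50s (four-parameter logistic fit) against activity of peptide-free controls. Product fluorescence was read every 3 min over 30 min at 25 °C, substrate Z-Gly-Gly-Arg-AMC at 50 μM. Enzyme was 2 nM human or 3 nM rat α-thrombin, pH 7.4 buffer.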

rat α-thrombin = target: T1, rat α-thrombin (Rattus norvegicus, UniProt P18292); assay: Protease inhibition, Ki for rat α-thrombin (fluorogenic substrate Z-Gly-Gly-Arg-AMC); format: biochemical; conditions: rat alpha thrombin; for Slope normalized to DMSO (proteolytic substrate cleavage over time): replicates R1-R3
T1 construct: rat α-thrombin (Molecular Innovations) were used at final concentrations of 2 nM and 3 nM; purchased Molecular Innovations
Procedure, shortened: as §1

[1] = Peptide stability in simulated intestinal fluid (SIF); format: in vitro ADME, porcine; conditions: simulated gi fluid; 8 h, 37 °C, pH 6.8; read-out: Proteolytic stability: SIF (8 h) % remaining
Procedure, shortened: (§2)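 Peptide from a 1 mM DMSO stock was added to fluid pre-warmed at 37 °C. SGF was pH 1.2 NaCl with porcine pepsin (0.32 g per 100 ml), and SIF was pH 6.8 potassium phosphate with porcine pancreatin (1 g per 100 ml). Supernatant peptide was quantified by LC–MS, with residual expressed as T1/T0.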

porcine pancreatin = assay: as above; format: in vitro ADME; conditions: after 8 h vs 0 h (TIC)
Procedure, shortened: as §2

[2] = Passive artificial membrane permeability (PAMPA)
[3] = Metabolic stability in rat liver microsomes (RLMs); conditions: for microsomal CLint / half-life: rat, microsomes

With `O=C1CSCCC[C@H](NC(=O)c2ccc(Cl)s2)C(=O)N[C@@H](Cc2ccccc2)C(=O)N2CCC[C@@H]2CC(=O)NCCSC1` [compound 37] the Ki (human α-thrombin; average of R1-R3, read-out: Ki Average, human alpha thrombin inhibition) was 20.6 nM, the “Slope normalized to DMSO (proteolytic substrate cleavage over time)” value (human α-thrombin; peptide 1.02E-03 uM) was 99.8 and 96.2 and 96.4 and the “Slope normalized to DMSO (proteolytic substrate cleavage over time)” value (human α-thrombin; peptide 1.04E+00 uM) was 4.2 and 21.2 and 8.1. The “Slope normalized to DMSO (proteolytic substrate cleavage over time)” value (human α-thrombin; peptide 1.27E-04 uM) was 99.4 and 96.4 and 91.4, the “Slope normalized to DMSO (proteolytic substrate cleavage over time)” value (human α-thrombin; peptide 1.30E-01 uM) was 13.4 and 22.3 and 23.1 and the “Slope normalized to DMSO (proteolytic substrate cleavage over time)” value (human α-thrombin; peptide 1.59E-05 uM) was 98.7 and 104.2 and 99.3. The “Slope normalized to DMSO (proteolytic substrate cleavage over time)” value (human α-thrombin; peptide 1.63E-02 uM) was 59.7 and 68.6 and 65.4, the “Slope normalized to DMSO (proteolytic substrate cleavage over time)” value (human α-thrombin; peptide 1.67E+01 uM) was 1.8 and 5.4 and -0.5 and the “Slope normalized to DMSO (proteolytic substrate cleavage over time)” value (human α-thrombin; peptide 2.03E-03 uM) was 99.7 and 85.8 and 91.5. For the same compound, the “Slope normalized to DMSO (proteolytic substrate cleavage over time)” value (human α-thrombin; peptide 2.08E+00 uM) was 2.6 and 15.2 and 7.7, the “Slope normalized to DMSO (proteolytic substrate cleavage over time)” value (human α-thrombin; peptide 2.54E-04 uM) was 103.4 and 95.2 and 94.0 and the “Slope normalized to DMSO (proteolytic substrate cleavage over time)” value (human α-thrombin; peptide 2.60E-01 uM) was 9.5 and 17.0 and 11.6. The “Slope normalized to DMSO (proteolytic substrate cleavage over time)” value (human α-thrombin; peptide 3.18E-05 uM) was 100.4 and 94.1 and 100.2, the “Slope normalized to DMSO (proteolytic substrate cleavage over time)” value (human α-thrombin; peptide 3.26E-02 uM) was 41.8 and 49.6 and 51.1 and the “Slope normalized to DMSO (proteolytic substrate cleavage over time)” value (human α-thrombin; peptide 3.33E+01 uM) was 1.5 and 2.2 and 1.9. For the same compound, the “Slope normalized to DMSO (proteolytic substrate cleavage over time)” value (human α-thrombin; peptide 4.07E-03 uM) was 80.8 and 82.5 and 73.0, the “Slope normalized to DMSO (proteolytic substrate cleavage over time)” value (human α-thrombin; peptide 4.17E+00 uM) was -1.2 and 8.8 and 5.3 and the “Slope normalized to DMSO (proteolytic substrate cleavage over time)” value (human α-thrombin; peptide 5.09E-04 uM) was 101.9 and 94.6 and 97.3. For the same compound, the “Slope normalized to DMSO (proteolytic substrate cleavage over time)” value (human α-thrombin; peptide 5.21E-01 uM) was 4.7 and 16.3 and 9.9, the “Slope normalized to DMSO (proteolytic substrate cleavage over time)” value (human α-thrombin; peptide 6.36E-05 uM) was 101.6 and 98.2 and 102.0 and the “Slope normalized to DMSO (proteolytic substrate cleavage over time)” value (human α-thrombin; peptide 6.51E-02 uM) was 27.8 and 39.2 and 31.3. The “Slope normalized to DMSO (proteolytic substrate cleavage over time)” value (human α-thrombin; peptide 6.67E+01 uM) was 4.9 and 8.1 and 5.5, the “Slope normalized to DMSO (proteolytic substrate cleavage over time)” value (human α-thrombin; peptide 7.95E-06 uM) was 99.9 and 99.1 (2×) and the “Slope normalized to DMSO (proteolytic substrate cleavage over time)” value (human α-thrombin; peptide 8.14E-03 uM) was 73.2 and 74.4 and 76.4. The “Slope normalized to DMSO (proteolytic substrate cleavage over time)” value (human α-thrombin; peptide 8.33E+00 uM) was -0.9 and 2.2 and 1.0, the IC50 (human α-thrombin; single replicates R1-R3, read-out: IC50, human alpha thrombin inhibition) was 21.8 nM and 29.6 nM and 28.8 nM and the Ki (human α-thrombin; single replicates R1-R3, read-out: Ki, human alpha thrombin inhibition) was 16.8 nM (2×) and 22.8 nM (2×) and 22.2 nM (2×). For the same compound, the Ki (rat α-thrombin; average of R1-R3, read-out: Ki Average, rat alpha thrombin inhibition) was 4.1 nM, the “Slope normalized to DMSO (proteolytic substrate cleavage over time)” value (rat α-thrombin; peptide 1.02E-03 uM) was 91.4 and 90.1 and 86.3 and the “Slope normalized to DMSO (proteolytic substrate cleavage over time)” value (rat α-thrombin; peptide 1.04E+00 uM) was 6.1 and 5.3 and 3.6. For the same compound, the “Slope normalized to DMSO (proteolytic substrate cleavage over time)” value (rat α-thrombin; peptide 1.27E-04 uM) was 98.4 and 98.1 and 97.2, the “Slope normalized to DMSO (proteolytic substrate cleavage over time)” value (rat α-thrombin; peptide 1.30E-01 uM) was 10.0 and 9.6 and 8.5 and the “Slope normalized to DMSO (proteolytic substrate cleavage over time)” value (rat α-thrombin; peptide 1.59E-05 uM) was 101.7 and 102.0 and 103.9. The “Slope normalized to DMSO (proteolytic substrate cleavage over time)” value (rat α-thrombin; peptide 1.63E-02 uM) was 36.7 and 39.2 and 35.6, the “Slope normalized to DMSO (proteolytic substrate cleavage over time)” value (rat α-thrombin; peptide 1.67E+01 uM) was 4.9 and 5.5 and the “Slope normalized to DMSO (proteolytic substrate cleavage over time)” value (rat α-thrombin; peptide 2.03E-03 uM) was 80.6 and 80.8 and 78.9. The “Slope normalized to DMSO (proteolytic substrate cleavage over time)” value (rat α-thrombin; peptide 2.08E+00 uM) was 5.5 and 5.7 and 3.5, the “Slope normalized to DMSO (proteolytic substrate cleavage over time)” value (rat α-thrombin; peptide 2.54E-04 uM) was 97.2 and 96.7 and 93.7 and the “Slope normalized to DMSO (proteolytic substrate cleavage over time)” value (rat α-thrombin; peptide 2.60E-01 uM) was 7.6 and 5.4 and 6.9. For the same compound, the “Slope normalized to DMSO (proteolytic substrate cleavage over time)” value (rat α-thrombin; peptide 3.18E-05 uM) was 100.1 and 100.5 and 98.3, the “Slope normalized to DMSO (proteolytic substrate cleavage over time)” value (rat α-thrombin; peptide 3.26E-02 uM) was 26.4 and 25.2 and 22.3 and the “Slope normalized to DMSO (proteolytic substrate cleavage over time)” value (rat α-thrombin; peptide 3.33E+01 uM) was 4.6 and 5.2 and 4.1. The “Slope normalized to DMSO (proteolytic substrate cleavage over time)” value (rat α-thrombin; peptide 4.07E-03 uM) was 63.4 and 62.5 and 70.6, the “Slope normalized to DMSO (proteolytic substrate cleavage over time)” value (rat α-thrombin; peptide 4.17E+00 uM) was 4.9 and 5.8 and -9.8 and the “Slope normalized to DMSO (proteolytic substrate cleavage over time)” value (rat α-thrombin; peptide 5.09E-04 uM) was 93.0 and 91.4 and 91.1. The “Slope normalized to DMSO (proteolytic substrate cleavage over time)” value (rat α-thrombin; peptide 5.21E-01 uM) was 5.7 and 6.4 and 5.0, the “Slope normalized to DMSO (proteolytic substrate cleavage over time)” value (rat α-thrombin; peptide 6.36E-05 uM) was 98.0 and 98.8 and 98.4 and the “Slope normalized to DMSO (proteolytic substrate cleavage over time)” value (rat α-thrombin; peptide 6.51E-02 uM) was 15.4 and 15.1 and 13.7. The “Slope normalized to DMSO (proteolytic substrate cleavage over time)” value (rat α-thrombin; peptide 6.67E+01 uM) was 5.1 and 5.7 and 2.7, the “Slope normalized to DMSO (proteolytic substrate cleavage over time)” value (rat α-thrombin; peptide 7.95E-06 uM) was 105.0 and 102.5 and 101.4 and the “Slope normalized to DMSO (proteolytic substrate cleavage over time)” value (rat α-thrombin; peptide 8.14E-03 uM) was 49.4 and 48.0 and 46.0. For the same compound, the “Slope normalized to DMSO (proteolytic substrate cleavage over time)” value (rat α-thrombin; peptide 8.33E+00 uM) was 5.4 and 5.3 and 3.8, the IC50 (rat α-thrombin; single replicates R1-R3, read-out: IC50, rat alpha thrombin inhibition) was 7.27 nM and 7.19 nM and 7.91 nM and the Ki (rat α-thrombin; single replicates R1-R3, read-out: Ki, rat alpha thrombin inhibition) was 4.03 nM (2×) and 3.98 nM (2×) and 4.38 nM (2×). For the same compound, the remaining at 8 h [1] was 83 ± 14%, the “SIF stability, Residual peptide Average” value (porcine pancreatin; average of R1-R3) was 83.45 and the “SIF stability, Residual peptide” value (porcine pancreatin; single replicates R1-R3) was 93.62 and 67.15 and 89.58. The “PAMPA permeability: % permeability” value ([2]; 50 μM, 12–18 h, acceptor concentration relative to equilibrium) was 31 ± 10%, the Papp at 50 μM ([2]; PAMPA, pH 7.4) was 3.47 ×10⁻⁶ cm/s and the “Permeability% Average” value ([2]; top well sample vs theoretical equilibrium sample (TIC), average of R1-R3) was 30.8%. The Permeability% ([2]; top well sample vs theoretical equilibrium sample (TIC), single replicates R1-R3) was 38.94% and 34.26% and 19.17%, the “TIC value of compound, 0 min, R1” value ([3]; rat liver microsomes, 0 min, replicate R1) was 9508843 and the “TIC value of compound, 0 min, R3” value ([3]; rat liver microsomes, 0 min, replicate R3) was 9444065. The “TIC value of compound, 5 min, R1” value ([3]; rat liver microsomes, 5 min, replicate R1) was 8851267, the “TIC value of compound, 5 min, R3” value ([3]; rat liver microsomes, 5 min, replicate R3) was 7487448 and the “TIC value of compound, 15 min, R1” value ([3]; rat liver microsomes, 15 min, replicate R1) was 4635928. For the same compound, the “TIC value of compound, 15 min, R3” value ([3]; rat liver microsomes, 15 min, replicate R3) was 4037534, the “TIC value of compound, 30 min, R1” value ([3]; rat liver microsomes, 30 min, replicate R1) was 2932536 and the “TIC value of compound, 30 min, R3” value ([3]; rat liver microsomes, 30 min, replicate R3) was 1896940. For the same compound, the “TIC value of compound, 60 min, R1” value ([3]; rat liver microsomes, 60 min, replicate R1) was 631769, the “TIC value of compound, 60 min, R3” value ([3]; rat liver microsomes, 60 min, replicate R3) was 473870 and the microsomal CLint ([3]; CL (ul/min/mg protein), R1, RLM CL, replicate R1, unrounded) was 81.1 µL/min/mg. It also gave a microsomal CLint ([3]; CL (ul/min/mg protein), R2, RLM CL, replicate R2, unrounded) of 98 µL/min/mg, a microsomal CLint ([3]; CL (ul/min/mg protein), R3, RLM CL, replicate R3, unrounded) of 107 µL/min/mg and a half-life ([3]; Half Life (min), R1, RLM metabolic stability, replicate R1) of 17.1 min. It also gave a half-life ([3]; Half Life (min), R2, RLM metabolic stability, replicate R2) of 14.2 min, a half-life ([3]; Half Life (min), R3, RLM metabolic stability, replicate R3) of 12.9 min and a half-life ([3]; Metabolic stability: Half life T1/2 (min), RLMs, mean and SD, three measurements) of 14.7 ± 1.7 min. It also gave a microsomal CLint ([3]; Metabolic stability: RLM CL (ul/min/mg), RLMs, mean and SD, three measurements) of 95 ± 11 µL/min/mg, a microsomal CLint ([3]; RLM CL, Average, average of R1-R3) of 95.4 µL/min/mg and a microsomal CLint ([3]; RLM CL, R1, RLM CL, replicate R1, summary block) of 81.1 µL/min/mg. It also gave a microsomal CLint ([3]; RLM CL, R2, RLM CL, replicate R2, summary block) of 98 µL/min/mg and a microsomal CLint ([3]; RLM CL, R3, RLM CL, replicate R3, summary block) of 107 µL/min/mg.
